Experimental data: patent US20240158446A1, “CYCLIC COMPOUND HAVING SELECTIVE INHIBITORY ACTION ON KRAS OVER HRAS AND NRAS” (CHUGAI SEIYAKU KABUSHIKI KAISHA, priority 2021, published 2024)
Read-outs that look alike come from different tables or passages of the source. Where a SMILES comes first, the peptide text is derived from it. Bridges are numbered along the chain shown (N, C = ends). [ ]: non-standard residue; d: D form. The star is where a group is joined. hPhe(3-Cl-4-CF3) = N[C@@H](CCc1ccc(C(F)(F)F)c(Cl)c1)C(=O)O; NPrPhe(4-CF3) = CCCN[C@@H](Cc1ccc(C(F)(F)F)cc1)C(=O)O; NMeGly(cPent) = CN[C@H](C(=O)O)C1CCCC1; Pro(4,4-Me2) = CC1(C)CN[C@H](C(=O)O)C1; Hyp = O=C(O)[C@@H]1C[C@@H](O)CN1; NMeD = CN[C@@H](CC(=O)O)C(=O)O; NMeL = CN[C@@H](CC(C)C)C(=O)O; Morpholide = C1CN(*)CCO1; Ac5c = NC1(C(=O)O)CCCC1; NcPrGly = O=C(O)CNC1CC1; NEtG = CCNCC(=O)O; Sar = CNCC(=O)O

Tests used:
[1] = target: GDP-bound NRAS wild-type protein (Homo sapiens, UniProt P01111); assay: Binding to NRAS by surface plasmon resonance (SPR), Single Cycle Kinetics; conditions: SPR, GDP-bound NRAS wild-type protein vs GDP-bound KRAS wild-type protein
[2] = target: GDP-bound KRAS wild-type protein (Homo sapiens, UniProt P01116); assay: Binding to KRAS by surface plasmon resonance (SPR), Single Cycle Kinetics; conditions: GDP-bound KRAS wild-type protein, read-out: KRAS KD
[3] = target: GDP-bound HRAS wild-type protein (Homo sapiens, UniProt P01112); assay: Binding to HRAS by surface plasmon resonance (SPR), Single Cycle Kinetics; conditions: SPR, GDP-bound HRAS wild-type protein vs GDP-bound KRAS wild-type protein
[4] = SPR Single Cycle Kinetics, 1:1 binding model

GDP-bound KRAS wild-type protein, sequence (P01116 whole entry): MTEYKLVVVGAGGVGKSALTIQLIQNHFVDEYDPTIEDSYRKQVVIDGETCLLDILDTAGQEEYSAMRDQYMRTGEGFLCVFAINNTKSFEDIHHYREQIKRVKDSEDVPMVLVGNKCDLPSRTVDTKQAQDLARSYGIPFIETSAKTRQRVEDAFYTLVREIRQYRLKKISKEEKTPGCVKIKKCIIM
GDP-bound NRAS wild-type protein, sequence (P01111 whole entry): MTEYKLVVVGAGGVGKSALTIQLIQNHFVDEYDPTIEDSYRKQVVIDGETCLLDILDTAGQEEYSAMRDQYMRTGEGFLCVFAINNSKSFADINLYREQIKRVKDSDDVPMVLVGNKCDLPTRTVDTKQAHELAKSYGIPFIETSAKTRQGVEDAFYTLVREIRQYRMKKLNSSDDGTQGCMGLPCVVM
GDP-bound HRAS wild-type protein, sequence (P01112 whole entry): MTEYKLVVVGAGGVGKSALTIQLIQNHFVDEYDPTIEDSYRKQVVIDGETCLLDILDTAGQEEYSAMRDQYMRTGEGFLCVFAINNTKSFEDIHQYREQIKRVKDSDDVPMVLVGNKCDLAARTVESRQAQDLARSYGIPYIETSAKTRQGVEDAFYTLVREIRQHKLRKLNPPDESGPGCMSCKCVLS

SMILES	Kd ([2]; SPR, Single Cycle Kinetics) [nM]	Kd [2, 4] [nM]	NRAS/KRAS (ratio of KD value for NRAS to KD value for KRAS) [1]	HRAS/KRAS (ratio of KD value for HRAS to KD value for KRAS) [3]	NRAS/KRAS (ratio of KD value with respect to NRAS to KD value with respect to KRAS) [1]	HRAS/KRAS (ratio of KD value with respect to HRAS to KD value with respect to KRAS) [3]	other results
CCO[C@@H]1C[C@H]2C(=O)NC3(CCC3)C(=O)N(C)[C@@H](C3CCCC3)C(=O)N(C)[C@H](C(=O)N3CCOCC3)CC(=O)N(C)[C@@H](CC(C)C)C(=O)N[C@@H](C3CC(F)(F)C3)C(=O)N(C)CC(=O)N(C)[C@H]3CCCCN(C3=O)[C@@H](Cc3ccc(C(F)(F)F)cc3)C(=O)N(C)CC(=O)N[C@@H](CCc3cc(F)c(C(F)(F)F)c(F)c3)C(=O)N2C1 [PP0807]		0.059			B (a compound having 3 or more and less than 10 is denoted as B)	B (a compound having 3 or more and less than 10 is denoted as B)	
CCO[C@@H]1C[C@H]2C(=O)NC3(CCC3)C(=O)N(C)[C@@H](C3CCCC3)C(=O)N(C)[C@H](C(=O)N(C)CCOC)CC(=O)N(C)[C@@H](C)C(=O)N[C@@H]([C@@H](C)CC)C(=O)N(C)CC(=O)N(C)[C@H]3C/C=C\CCN(C3=O)[C@@H](Cc3ccc(C(F)(F)F)cc3)C(=O)N(C)CC(=O)N[C@@H](CCc3cc(F)c(C(F)(F)F)c(F)c3)C(=O)N2C1 [PP1319, (2S,8S,12R,14S,20S,23S,27S,30S,36S,38Z)-20-cyclopentyl-8-[2-[3,5-difluoro-4-(trifluoromethyl)phenyl]ethyl]-12-ethoxy-N-(2-methoxyethyl)-N,4,19,22,26,27,32,35-octamethyl-30-[(1S)-1-methylpropyl]-3,6,9,15,18,21,25,28,31,34,42-undecaoxo-2-[[4-(trifluoromethyl)phenyl]methyl]spiro[1,4,7,10,16,19,22,26,29,32,35-undecazatricyclo[34.5.1.0^10,14]dotetracont-38-ene-17,1′-cyclobutane]-23-carboxamide]							NRAS/KRAS (ratio of KD value for NRAS to KD value for KRAS) ([1]; KD ratio class): A (a compound having 10 or more and less than 20 is denoted as A); Kd ([2]; SPR, Single Cycle Kinetics, 1:1 binding model): 0.069 nM; HRAS/KRAS (ratio of KD value for HRAS to KD value for KRAS) ([3]; KD ratio class): B (a compound having 3 or more and less than 10 is denoted as B)
CC[C@H](C)[C@@H]1NC(=O)[C@H](COC)N(C)C(=O)C[C@@H](C(=O)N2CCOCC2)N(C)C(=O)[C@H](C2CCCC2)N(C)C(=O)C2(CCC2)NC(=O)[C@@H]2C[C@H](OC)CN2C(=O)[C@H](CCc2cc(F)c(C(F)(F)F)c(F)c2)NC(=O)CN(C)C(=O)[C@H](Cc2ccc(C(F)(F)F)cc2)N2CCCCC[C@@H](C2=O)N(C)C(=O)CN(C)C1=O [PP0836]	0.63		B (a compound having 3 or more and less than 10 is denoted as B)	B (a compound having 3 or more and less than 10 is denoted as B)			
C#CC[C@H]1C(=O)N[C@@H]([C@@H](C)CC)C(=O)N(C)CC(=O)N(C)[C@H]2CCCCN(C2=O)[C@@H](Cc2ccc(C(F)(F)F)cc2)C(=O)N(C)CC(=O)N[C@@H](CCc2cc(F)c(C(F)(F)F)c(F)c2)C(=O)N2C[C@H](OCC)C[C@H]2C(=O)NC2(CCC2)C(=O)N(C)[C@@H](C2CCCC2)C(=O)N(C)[C@H](C(=O)N2CCOCC2)CC(=O)N1C [PP0711]		0.025			C (A compound having a KD ratio of 0.1 or more and less than 3 is denoted as C)	B (a compound having 3 or more and less than 10 is denoted as B)	
CCCN1C(=O)CN(C)C(=O)CN(CC)C(=O)[C@H]([C@@H](C)CC)NC(=O)[C@H](CC(C)C)N(C)C(=O)C[C@@H](C(=O)N2CCOCC2)N(C)C(=O)[C@H](C2CCCC2)N(C)C(=O)C2(CCCC2)NC(=O)[C@@H]2CC(C)(C)CN2C(=O)[C@H](CCc2ccc(C(F)(F)F)c(Cl)c2)NC(=O)CN(C)C(=O)[C@@H]1Cc1ccc(C(F)(F)F)cc1 [PP0450] ([NMeL]I[NEtG][Sar][NPrPhe(4-CF3)][Sar][hPhe(3-Cl-4-CF3)][Pro(4,4-Me2)][Ac5c][NMeGly(cPent)][NMeD]-Morpholide; lactam N-11)		0.38			B (a compound having 3 or more and less than 10 is denoted as B)	C (A compound having a KD ratio of 0.1 or more and less than 3 is denoted as C)	
CCCN1C(=O)CN(C)C(=O)CN(C)C(=O)[C@H]([C@@H](C)CC)NC(=O)[C@H](CC(C)C)N(C)C(=O)C[C@@H](C(=O)N2CCOCC2)N(C)C(=O)[C@H](C2CCCC2)N(C)C(=O)C2(CCCC2)NC(=O)[C@@H]2CC(C)(C)CN2C(=O)[C@H](CCc2ccc(C(F)(F)F)c(Cl)c2)NC(=O)CN(C)C(=O)[C@@H]1Cc1ccc(C(F)(F)F)cc1 [PP0446] ([NMeL]I[Sar][Sar][NPrPhe(4-CF3)][Sar][hPhe(3-Cl-4-CF3)][Pro(4,4-Me2)][Ac5c][NMeGly(cPent)][NMeD]-Morpholide; lactam N-11)		0.1			B (a compound having 3 or more and less than 10 is denoted as B)	C (A compound having a KD ratio of 0.1 or more and less than 3 is denoted as C)	
CC[C@H](C)[C@@H]1NC(=O)[C@H](CC(C)C)N(C)C(=O)C[C@@H](C(=O)N2CCOCC2)N(C)C(=O)[C@H](C2CCCC2)N(C)C(=O)C2(CCCC2)NC(=O)[C@@H]2CCCN2C(=O)[C@H](CCc2cc(F)c(C(F)(F)F)c(F)c2)NC(=O)CN(C)C(=O)[C@H](Cc2ccc(C(F)(F)F)cc2)N2CCCC[C@@H](C2=O)N(C)C(=O)CNC1=O [PP0542]		0.11			B (a compound having 3 or more and less than 10 is denoted as B)	B (a compound having 3 or more and less than 10 is denoted as B)	
CCCN1C(=O)CN(C)C(=O)CN(C2CC2)C(=O)[C@H]([C@@H](C)CC)NC(=O)[C@H](CC(C)C)N(C)C(=O)C[C@@H](C(=O)N2CCOCC2)N(C)C(=O)[C@H](C2CCCC2)N(C)C(=O)C2(CCCC2)NC(=O)[C@@H]2CCCN2C(=O)[C@H](CCc2ccc(C(F)(F)F)c(Cl)c2)NC(=O)CN(C)C(=O)[C@@H]1Cc1ccc(C(F)(F)F)cc1 [PP0252] ([NMeL]I[NcPrGly][Sar][NPrPhe(4-CF3)][Sar][hPhe(3-Cl-4-CF3)]P[Ac5c][NMeGly(cPent)][NMeD]-Morpholide; lactam N-11)		0.34	B (a compound having 3 or more and less than 10 is denoted as B)	B (a compound having 3 or more and less than 10 is denoted as B)			

The next lines start with results.

Kd ([2]; SPR, Single Cycle Kinetics) [nM]	Kd [2, 4] [nM]	SMILES	NRAS/KRAS (ratio of KD value for NRAS to KD value for KRAS) [1]	HRAS/KRAS (ratio of KD value for HRAS to KD value for KRAS) [3]	NRAS/KRAS (ratio of KD value with respect to NRAS to KD value with respect to KRAS) [1]	HRAS/KRAS (ratio of KD value with respect to HRAS to KD value with respect to KRAS) [3]	other results
0.15		CCO[C@@H]1C[C@H]2C(=O)NC3(CCCC3)C(=O)N(C)[C@@H](C3CCCC3)C(=O)N(C)[C@H](C(=O)N(C)C)CC(=O)N(C)[C@@H](CC(C)C)C(=O)N[C@@H]([C@@H](C)CC)C(=O)N(C)CC(=O)N(C)[C@H]3C/C=C\CCN(C3=O)[C@@H](Cc3ccc(C)cc3)C(=O)N(C)CC(=O)N[C@@H](CCc3ccc(C(F)(F)F)c(OC)c3)C(=O)N2C1 [PP2197]	A (a compound having 10 or more and less than 20 is denoted as A)	B (a compound having 3 or more and less than 10 is denoted as B)			
0.17		CCO[C@@H]1C[C@H]2C(=O)NC3(CC(F)(F)C3)C(=O)N(C)[C@@H](C3CCCC3)C(=O)N(C)[C@H](C(=O)N3CCOCC3)CC(=O)N(C)[C@@H](CC(C)C)C(=O)N[C@@H]([C@@H](C)CC)C(=O)N(C)CC(=O)N(C)[C@H]3CC=C(C)CN(C3=O)[C@@H](Cc3ccc(C(F)(F)F)cc3)C(=O)N(C)CC(=O)N[C@@H](CCc3cc(F)c(C(F)(F)F)c(F)c3)C(=O)N2C1 [PP0828]	C (A compound having a KD ratio of 0.1 or more and less than 3 is denoted as C)	C (A compound having a KD ratio of 0.1 or more and less than 3 is denoted as C)			
0.37		CCC[C@H]1C(=O)N[C@@H](C2CCCCC2)C(=O)N(C)CC(=O)N(C)[C@H]2C/C=C\CCN(C2=O)[C@@H](Cc2ccc(C(F)(F)F)cc2)C(=O)N(C)CC(=O)N[C@@H](CCc2ccc(C(F)(F)F)c(Cl)c2)C(=O)N2C[C@H](OCC)C[C@H]2C(=O)NC2(CC(C)(C)C2)C(=O)N(C)[C@@H](CC(C)(C)C)C(=O)N(C)[C@H](C(=O)N(C)C)CC(=O)N1C [PP3014]	AA (a compound having 20 or more is denoted as AA)	A (a compound having 10 or more and less than 20 is denoted as A)			
	0.028	CCO[C@@H]1C[C@H]2C(=O)NC3(CCC3)C(=O)N(C)[C@@H](C3CCCC3)C(=O)N(CCC3CCC3)[C@H](C(=O)N(C)C)CC(=O)N(C)[C@@H](CC)C(=O)N[C@@H]([C@@H](C)CC)C(=O)N(C)CC(=O)N(C)[C@H]3CCCCN(C3=O)[C@@H](Cc3ccc(C(F)(F)F)cc3)C(=O)N(C)CC(=O)N[C@@H](CCc3cc(F)c(C(F)(F)F)c(F)c3)C(=O)N2C1 [PP0645]			B (a compound having 3 or more and less than 10 is denoted as B)	B (a compound having 3 or more and less than 10 is denoted as B)	
	0.033	CCCN1C(=O)CN(C)C(=O)CNC(=O)[C@H]([C@@H](C)CC)NC(=O)[C@H](CC(C)C)N(C)C(=O)C[C@@H](C(=O)N(C)C)N(C)C(=O)[C@H](C2CCCC2)N(C)C(=O)C2(CCCC2)NC(=O)[C@@H]2C[C@@H](OCC)CN2C(=O)[C@H](CCc2ccc(C(F)(F)F)c(Cl)c2)NC(=O)CN(C)C(=O)[C@@H]1Cc1ccc(C(F)(F)F)cc1 [PP0421] ([NMeL]IG[Sar][NPrPhe(4-CF3)][Sar][hPhe(3-Cl-4-CF3)][Hyp](Et)[Ac5c][NMeGly(cPent)][NMeD]-NMe2; lactam N-11)			B (a compound having 3 or more and less than 10 is denoted as B)	C (A compound having a KD ratio of 0.1 or more and less than 3 is denoted as C)	
